Patent publication US11179372B2, “Isoxazoline solution containing vitamin E for use with sanitized drinking water” (Intervet Inc., priority 2015, dated 2021)

How the values were obtained:
[1] = Accelerated stability testing of pharmaceutical composition comprising a protector; type: physicochemical; conditions: for Appearance of the pharmaceutical composition with protector on storage: stability results up to 4 months, tests terminated
Description: Similar to the experiments described in Example 3 above, where the effect of water quality on Fluralaner-containing medicated drinking water was tested; here samples of the pharmaceutical composition were tested for an effect of the addition of a protector, on their stability during prolonged storage.
To test the long term stability of the pharmaceutical composition with a protector, some samples were stored under conditions of accelerated ageing. Samples of the pharmaceutical composition with or without one of the protectors, were filled out in portions of 7 gram each, in 10 ml glass vials, sealed with rubber stoppers, and stored under different conditions: 2-8° C.; 30° C./65% RH; 40° C./75% RH, and 50° C. […]

[2] = Prevention of degradation by oxidizing sanitizer (hypochlorite) in medicated drinking water; type: physicochemical; conditions: for Colour during incubation in sanitized water: a few days into the incubation
Description: The Fluralaner level was determined using UHPLC. The alpha-tocopherol used was alpha-tocopherol EP (Fluka).
To prepare the test samples, the required amounts of Transcutol and Tween were measured, combined in a beaker at room temperature, and mixed magnetically. Next, when no protector was added, the required amount of Fluralaner was weighed, added, and mixed until complete dissolution, which usually required about 10 minutes, at 70% speed. […] The complete dissolution was verified visually. Next the density of the resulting solution was checked with a Densimeter, at 20° C.
To test the capacity of the different protectors to prevent degradation of Fluralaner in medicated drinking water by an oxidising sanitizer, samples of the pharmaceutical composition as prepared above were diluted to different concentrations, and incubated with different amounts of hypochlorite. Concentrations of Fluralaner in medicated drinking water used were: 1, 5, and 10 μg/ml.
The hypochlorite used was from a 13% sodium hypochlorite solution (Acros Organics), which was prepared into samples with a concentration of hypochlorite of: 0, 0.5, 2, 5, or 10 ppm, wherein 1 ppm equals 20 μM. Samples without hypochlorite served as positive controls. While the dilutions of hypochlorite were made in purified water, one additional sample at 5 ppm hypochlorite was prepared in standard tap water (Angers, France). Control samples were tested at day zero, all others were tested after an incubation for 7 days at 40° C./75% RH.
The concentration of protector in the test sample was dependent of the dilution factor of the concentrated Fluralaner composition applied: 1:10,000, 1:2000, or 1:1000, respectively.

[3] = Solubility and mixing of protectors in the base pharmaceutical composition; conditions: for Solubility in the base pharmaceutical composition: 0.95% w/w Fluralaner in Transcutol V and Tween 80 25:75
Description: To the base of a pharmaceutical composition as described herein, comprising isoxazoline, solvent, and surfactant, different compounds were added as protectors to prevent breakdown of isoxazoline when diluted in water with a water sanitizer such as hypochlorite.
Where the protector amount was zero, this sample served as unprotected control sample. The Fluralaner level was determined using UHPLC. The alpha-tocopherol used was alpha-tocopherol EP (Fluka).
For samples containing a protector, Fluralaner was added to a mixture of Transcutol V, Tween 80 and protector, and then mixed to dissolve.

Compound: COc1ccc(O)c(C(C)(C)C)c1 [BHA, butylated hydroxyanisole]
- Appearance of the pharmaceutical composition with protector on storage [1]: discoloration
- Colour during incubation in sanitized water [2]: colour change did develop
- Solubility in the base pharmaceutical composition [3]: soluble

Compound: Cc1cc(C(C)(C)C)c(O)c(C(C)(C)C)c1 [BHT, butylated hydroxytoluene]
- Appearance of the pharmaceutical composition with protector on storage [1]: discoloration
- Colour during incubation in sanitized water [2]: colour change did develop
- Solubility in the base pharmaceutical composition [3]: soluble

Compound: CCCCCCCCCCCCOC(=O)c1cc(O)c(O)c(O)c1 [Lauryl gallate, dodecyl gallate]
- Appearance of the pharmaceutical composition with protector ([1]; shortly after preparation): orange coloration appeared
- Appearance after mixing in the base pharmaceutical composition [3]: orange coloration
- Solubility in the base pharmaceutical composition [3]: soluble

Compound: O=S([O-])S(=O)(=O)[O-].[Na+].[Na+] [Na-metabisulfite, Sodium metabisulfite]
- Solubility in the base pharmaceutical composition [3]: not soluble

Compound: O=S([O-])[O-].[Na+].[Na+] [Na-sulphite, Sodium sulphite]
- Solubility in the base pharmaceutical composition [3]: not soluble

Compound: Cc1c(C)c2c(c(C)c1O)CC[C@@](C)(CCC[C@H](C)CCC[C@H](C)CCCC(C)C)O2 [alpha-tocopherol]
- Stability of pharmaceutical composition, interaction by protector ([1]; stability data up to 18 months): lack of interaction
- Level of alpha-tocopherol in pharmaceutical composition on storage ([1]; up to 8 months, 2-8° C., 30° C./65% RH, 40° C./75% RH, 50° C.): no significant reduction
- Protection of Fluralaner from degradation in sanitized drinking water ([2]; Fluralaner 1 μg/ml and 10 ppm hypochlorite, 7 days): could not protect
- Protection of Fluralaner from degradation in sanitized drinking water ([2]; Fluralaner at 5 or 10 μg/ml, up to 7 days, 40° C., up to 10 ppm hypochlorite): completely protect
